Results reported in patent publication US20240408093A1, “HETEROBIFUNCTIONAL COMPOUNDS AND THEIR USE IN TREATING DISEASE” (HALDA THERAPEUTICS OPCO, INC., priority 2022, published 2024).
Like-named read-outs stand apart in the source and are kept apart here.

Assays:
[1] = test system: HEK293 cells (ATCC CRL-1573); test: Cellular growth inhibition assay, HEK293 cells (Example 16); format: cell-based; conditions: Homo sapiens, 72 hours, CellTiter-Glo 2.0
HeLa cells (ATCC CCL-2) = test: Cellular growth inhibition assay, HeLa cells (Example 16); format: cell-based; conditions: Homo sapiens, 72 hours, CellTiter-Glo 2.0
GSPT1 = test: Payload release assay (DC50 readout), GSPT1 degradation in the presence of recombinant target protein; format: cell-based; conditions: I-series compounds (GSPT1 readout inferred)
Method: Exemplary compounds were tested for ability to cause degradation of CCNK or GSPT1 in the presence of recombinant target protein.
HEK293 LgBiT/GSPT1 HiBiT CRISPR Knock-in cells (Promega) were cultured in DMEM (Gibco 11995), supplemented with 10% Heat-inactivated FBS (Gibco A38400-01) and 1% Penicillin/Streptomycin (Gibco 15140-122) and 200 Vg/ml Hygromycin B (Gibco 10-687-010) at 37° C. with 5% CO2 in a humidified tissue culture incubator. HEK293 LgBiT/CCNK HiBiT cells (in-house, described above) were cultured in DMEM (Gibco 11995), supplemented with 10% Heat-inactivated FBS (Gibco A38400-01) and 1% Penicillin/Streptomycin (Gibco 15140-122) 200 Vg/ml Hygromycin B (Gibco 10-687-010), and 1 Vg/ml Puromycin Dihydrochloride (Thermo A1113803) at 37° C. with 5% CO2 in a humidified tissue culture incubator. Cells were seeded (1000 cells/well for HEK293 LgBiT/GSPT1 HiBiT cells or 3000 cells/well for HEK293 LgBiT/CCNK HiBiT cells) 384-well, tissue culture-treated white plates (Perkin Elmer 6007680) in 10 μL media lacking selection for 18-24 hours. Plates were spun at 300 g for 30 seconds and stored in the incubator overnight. After 24 hours, a 5 μL aliquot of recombinant target protein (final concentration of either 5 μM KRAS amino acids 1-169, C51S, C80L, C118S, G12C or 3 μM EGFR amino acids 696-1022 or 3 μM EGFR amino acids 696-1022, T790M, L858R) was added to wells, followed immediately by a 5 μL aliquot of 4× compound-containing medium supplemented with Endurazine Substrate (Promega N2570) was added in each well, at a final top concentration of 10 μM test compound and 0.5× Endurazine, with 4-fold dilutions, using DMSO alone as a negative control. Plates were then spun at 300×g for 3 minutes again and cultured at 37° C. with 5% CO2. After 6 hours the plate was read on Envision MultiMode Plate Reader 2105 (Perkin Elmer) to measure luminescence signal. Data was normalized to DMSO treated cell wells. A four-parameter non-linear regression curve fit was applied to dose-response data in Prism to determine the half maximal growth inhibitory concentration (GI50) of each compound.

KRAS G12C = KRAS G12C (Homo sapiens, UniProt P01116, G12C); test: KRAS G12C nucleotide exchange assay (SOS1-mediated, HTRF); format: biochemical; design: GST-tagged KRAS G12C (amino acids 2-169); conditions: 1 hr pre-incubation
KRAS G12C, sequence (P01116 2-169 isoform P01116-2 G12C): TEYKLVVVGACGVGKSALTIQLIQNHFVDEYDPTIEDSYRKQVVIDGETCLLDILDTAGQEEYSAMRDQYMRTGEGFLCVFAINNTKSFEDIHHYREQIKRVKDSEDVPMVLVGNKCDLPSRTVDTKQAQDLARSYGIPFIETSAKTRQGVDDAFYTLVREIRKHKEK
Outline: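 GST-tagged KRAS G12C (aa 2-169, 30 nM) pre-incubated 1 h at RT with compound (10-point, 3-fold dilution from 10 μM), then SOS1 (aa 564-1049, 20 nM) and GTP-DY-647P1 (0.15 μM) added. Exchange read by HTRF with anti-GST Tb antibody. IC50 from sigmoidal variable-slope fit.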

[2] = 0 μM recombinant KRAS G12C, read-out: DC50 at 0 μM KRAS G12C
[3] = 5 μM recombinant KRAS G12C, read-out: DC50 at 5 μM KRAS G12C

Compound | GI50 [1] [µM] | GI50 (HeLa cells (ATCC CCL-2)) [µM] | DC50 (GSPT1; [2]) [µM] | DC50 (GSPT1; [3]) [µM] | IC50 (KRAS G12C) [µM]
C=C(COc1ccc(CN2C(=O)CCC(N3Cc4cc(CNC(=O)Nc5ccc(C)c(Cl)c5)ccc4C3=O)C2=O)cc1)C(=O)N1CCN(c2nc(OC[C@H]3CCCN3C)nc3c2CCN(c2cccc4cccc(Cl)c24)C3)C[C@@H]1CC#N (stereo in doubt) [Compound I-44] | > 10 | > 10 | > 10 | 0.25 to 5 | 0.1 to 5
C=C(COc1cc(Cl)cc(NC(=O)NCc2ccc3c(c2)CN(C2CCC(=O)NC2=O)C3=O)c1)C(=O)N1CCN(c2nc(OC[C@@H]3CCCN3C)nc3c2CCN(c2cccc4cccc(Cl)c24)C3)C[C@@H]1CC#N (stereo partly drawn) [Compound I-35] | 1.5 to 10 | 1.5 to 10 | 0.25 to 5 | < 0.25 | < 0.1
C=C(COc1cc(Cl)c(OC)cc1NC(=O)NCc1ccc2c(c1)CN(C1CCC(=O)NC1=O)C2=O)C(=O)N1CCN(c2nc(OC[C@@H]3CCCN3C)nc3c2CCN(c2cccc4cccc(Cl)c24)C3)C[C@@H]1CC#N (stereo partly drawn) [Compound I-46] | 0.5 to 1.5 | > 10 | 0.25 to 5 | < 0.25 | < 0.1
C=C(COc1cc(NC(=O)NCc2ccc3c(c2)CN(C2CCC(=O)NC2=O)C3=O)cc(C(F)(F)F)c1)C(=O)N1CCN(c2nc(OC[C@@H]3CCCN3C)nc3c2CCN(c2cccc4cccc(Cl)c24)C3)C[C@@H]1CC#N (stereo partly drawn) [Compound I-48] | 1.5 to 10 | > 10 | 0.25 to 5 | 0.25 to 5 | < 0.1
C=C(COc1cccc(NC(=O)NCc2ccc3c(c2)CN(C2CCC(=O)NC2=O)C3=O)c1)C(=O)N1CCN(c2nc(OC[C@@H]3CCCN3C)nc3c2CCN(c2cccc4cccc(Cl)c24)C3)C[C@@H]1CC#N (stereo partly drawn) [Compound I-49] | > 10 | > 10 | 0.25 to 5 | > 10 | < 0.1
C=C(COc1cc(NC(=O)NCc2ccc3c(c2)CN(C2CCC(=O)NC2=O)C3=O)cc(OC)c1)C(=O)N1CCN(c2nc(OC[C@@H]3CCCN3C)nc3c2CCN(c2cccc4cccc(Cl)c24)C3)C[C@@H]1CC#N (stereo partly drawn) [Compound I-50] | > 10 | > 10 | 0.25 to 5 | 0.25 to 5 | < 0.1
C=C(COc1ccc(Cl)cc1NC(=O)NCc1ccc2c(c1)CN(C1CCC(=O)NC1=O)C2=O)C(=O)N1CCN(c2nc(OC[C@@H]3CCCN3C)nc3c2CCN(c2cccc4cccc(Cl)c24)C3)C[C@@H]1CC#N (stereo partly drawn) [Compound I-52] | 0.5 to 1.5 | 1.5 to 10 | 0.25 to 5 | < 0.25 | < 0.1
C=C(COc1cc(Cl)cc(NC(=O)NCc2ccc3c(c2)CN(C2CCC(=O)NC2=O)C3=O)c1)C(=O)N1CC2(CC(n3nc(-c4ccc5c(cnn5C)c4)c(-c4c(Cl)c(C)cc5[nH]ncc45)c3C)C2)C1 (stereo not drawn) [Compound I-56] | 0.5 to 1.5 | < 0.5 | < 0.25 | < 0.25 | 0.1 to 5
C=C(CN(C)c1cccc(NC(=O)NCc2ccc3c(c2)CN(C2CCC(=O)NC2=O)C3=O)c1)C(=O)N1CCN(c2nc(OC[C@@H]3CCCN3C)nc3c2CCN(c2cccc4cccc(Cl)c24)C3)C[C@@H]1CC#N (stereo partly drawn) [Compound I-58] | 1.5 to 10 | 1.5 to 10 | > 10 | 5 to 10 | 5 to 10
C=C(COc1cc(F)c(F)cc1NC(=O)NCc1ccc2c(c1)CN(C1CCC(=O)NC1=O)C2=O)C(=O)N1CCN(c2nc(OC[C@@H]3CCCN3C)nc3c2CCN(c2cccc4cccc(Cl)c24)C3)C[C@@H]1CC#N (stereo partly drawn) [Compound I-62] | > 10 | > 10 | 0.25 to 5 | < 0.25 | < 0.1
C=C(COc1ccccc1CNC(=O)NCc1ccc2c(c1)CN(C1CCC(=O)NC1=O)C2=O)C(=O)N1CCN(c2nc(OC[C@@H]3CCCN3C)nc3c2CCN(c2cccc4cccc(Cl)c24)C3)C[C@@H]1CC#N (stereo partly drawn) [Compound I-63] | > 10 | > 10 | > 10 | > 10 | < 0.1
C=C(COc1cc(Cl)cc(NC(=O)NCc2cc3c(cc2F)C(=O)N(C2CCC(=O)NC2=O)C3)c1)C(=O)N1CCN(c2nc(OC[C@@H]3CCCN3C)nc3c2CCN(c2cccc4cccc(Cl)c24)C3)C[C@@H]1CC#N (stereo partly drawn) [Compound I-64] | 0.5 to 1.5 | > 10 | 0.25 to 5 | < 0.25 | < 0.1
C=C(COc1cc(Cl)c(OC)cc1NC(=O)NCc1ccc2c(c1)CN(C1CCC(=O)NC1=O)C2=O)C(=O)N1CC2(CC(n3nc(-c4ccc5c(cnn5C)c4)c(-c4c(Cl)c(C)cc5[nH]ncc45)c3C)C2)C1 (stereo not drawn) [Compound I-66] | < 0.5 | 0.5 to 1.5 | < 0.25 | < 0.25 | 0.1 to 5
C=C(COc1cc(NC(=O)NCc2ccc3c(c2)CN(C2CCC(=O)NC2=O)C3=O)cc(OC)c1)C(=O)N1CC2(CC(n3nc(-c4ccc5c(cnn5C)c4)c(-c4c(Cl)c(C)cc5[nH]ncc45)c3C)C2)C1 (stereo not drawn) [Compound I-67] | > 10 | > 10 | 0.25 to 5 | 0.25 to 5 | 0.1 to 5
C=C(COc1cc(NC(=O)NCc2ccc3c(c2F)CN(C2CCC(=O)NC2=O)C3=O)cc(C(F)(F)F)c1)C(=O)N1CC2(CC(n3nc(-c4ccc5c(cnn5C)c4)c(-c4c(Cl)c(C)cc5[nH]ncc45)c3C)C2)C1 (stereo not drawn) [Compound I-68] | < 0.5 | > 10 | > 10 | > 10 | 0.1 to 5
C=C(COC(=O)c1c(C)csc1NC(=O)NCc1ccc2c(c1)CN(C1CCC(=O)NC1=O)C2=O)C(=O)N1CCN(c2nc(OC[C@@H]3CCCN3C)nc3c2CCN(c2cccc4cccc(Cl)c24)C3)C[C@@H]1CC#N (stereo partly drawn) [Compound I-72, 2-[(2S)-4-[7-(8-chloro-1-naphthyl)-2-[[(2S)-1-methylpyrrolidin-2-yl]methoxy]-6,8-dihydro-5H-pyrido[3,4-d]pyrimidin-4-yl]-2-(cyanomethyl)piperazine-1-carbonyl]allyl 2-[[2-(2,6-dioxo-3-piperidyl)-1-oxo-isoindolin-5-yl]methylcarbamoylamino]-4-methyl-thiophene-3-carboxylate] | 1.5 to 10 | 1.5 to 10 | > 10 | 0.25 to 5 | < 0.1
C=C(COC(=O)NCc1cc(Cl)cc(NC(=O)NCc2ccc3c(c2)CN(C2CCC(=O)NC2=O)C3=O)c1)C(=O)N1CCN(c2nc(OC[C@@H]3CCCN3C)nc3c2CCN(c2cccc4cccc(Cl)c24)C3)C[C@@H]1CC#N (stereo partly drawn) [Compound I-73] | < 0.5 | 1.5 to 10 | < 0.25 | < 0.25 | < 0.1
C=C(COC(=O)NCCCc1cc(Cl)cc(NC(=O)NCc2ccc3c(c2)CN(C2CCC(=O)NC2=O)C3=O)c1)C(=O)N1CCN(c2nc(OC[C@@H]3CCCN3C)nc3c2CCN(c2cccc4cccc(Cl)c24)C3)C[C@@H]1CC#N (stereo partly drawn) [Compound I-74] | 0.5 to 1.5 | 1.5 to 10 | 0.25 to 5 | < 0.25 | < 0.1
C=C(CN1CCN(c2nc(NCc3nc4cc(C)ccc4[nH]3)n3ncc(Br)c3n2)CC1)C(=O)N1CCN(c2nc(OC[C@@H]3CCCN3C)nc3c2CCN(c2cccc4cccc(Cl)c24)C3)C[C@@H]1CC#N [II-190] | < 0.5 | < 0.5 | – | – | < 0.1
